Species on record: Rattus norvegicus
Assay: DrugMatrix - Regimen: Daily Repeat
Assay type: toxicity, organism-based, Sprague-Dawley
Set-up: regimen Daily Repeat, gender Male, age 6-8 weeks
Conditions: in vivo, po, route oral GAVAGE, […]; for ABSOLUTE BASOPHIL / ABSOLUTE EOSINOPHIL / ABSOLUTE LYMPHOCYTE / ABSOLUTE MONOCYTE / ABSOLUTE SEGMENTED NEUTROPHIL / BASOPHIL / EOSINOPHIL / ERYTHROCYTE COUNT / HEMATOCRIT / HEMOGLOBIN / LEUKOCYTE COUNT / LYMPHOCYTE / MEAN CORPUSCULAR HEMOGLOBIN / MEAN CORPUSCULAR HEMOGLOBIN CONCENTRATION / MEAN CORPUSCULAR VOLUME / MONOCYTE / NEUTROPHIL / NUCLEATED RED BLOOD CELLS / PLATELET COUNT: tissue Blood; for ALANINE AMINOTRANSFERASE / ALBUMIN / ALKALINE PHOSPHATASE / ASPARTATE AMINOTRANSFERASE / BLOOD UREA NITROGEN / CARBON DIOXIDE / CHLORIDE / CHOLESTEROL / CREATINE PHOSPHOKINASE / CREATININE / GLUCOSE / LACTATE DEHYDROGENASE / LIPASE / PHOSPHORUS / POTASSIUM / SODIUM / TOTAL BILIRUBIN / TOTAL PROTEIN / URIC ACID: tissue Plasma
[1] = 4 mg/kg, 120 h, dose level Low, time 5 day
[2] = 63 mg/kg, 72 h, dose level High, time 3 day
[3] = 63 mg/kg, 120 h, dose level High, time 5 day

## CSc1ccc2c(c1)N(CCC1CCCCN1C)c1ccccc1S2 (centres undefined) [THIORIDAZINE]
[1]
  ABSOLUTE BASOPHIL: 0 CELLS/uL
  ABSOLUTE EOSINOPHIL: 185.33 CELLS/uL
  ABSOLUTE LYMPHOCYTE: 12393.33 CELLS/uL
  ABSOLUTE MONOCYTE: 143.33 CELLS/uL
  ABSOLUTE SEGMENTED NEUTROPHIL: 1078 CELLS/uL
  BASOPHIL: 0%
  EOSINOPHIL: 1.33%
  ERYTHROCYTE COUNT: 6.21 x10E6/uL
  HEMATOCRIT: 39.13%
  HEMOGLOBIN: 14.43 G/DL
  LEUKOCYTE COUNT: 13.8 x10E3/uL
  LYMPHOCYTE: 90%
  MEAN CORPUSCULAR HEMOGLOBIN: 23.27 pg
  MEAN CORPUSCULAR HEMOGLOBIN CONCENTRATION: 36.87 G/DL
  MEAN CORPUSCULAR VOLUME: 63.13 fL
  MONOCYTE: 1%
  NEUTROPHIL: 7.67%
  NUCLEATED RED BLOOD CELLS: 0.33 /100WBC
  PLATELET COUNT: 1375 x10E3/uL
  ALANINE AMINOTRANSFERASE: 42.67 u/L
  ALBUMIN: 4.4 G/DL
  ALKALINE PHOSPHATASE: 474.67 u/L
  ASPARTATE AMINOTRANSFERASE: 94.67 u/L
  BLOOD UREA NITROGEN: 17.67 mg/dL
  CARBON DIOXIDE: 24.33 mmol/L
  CHLORIDE: 103.67 MEQ/L
  CHOLESTEROL: 48.67 mg/dL
  CREATINE PHOSPHOKINASE: 499.33 u/L
  CREATININE: 0.19 mg/dL
  GLUCOSE: 188 mg/dL
  LACTATE DEHYDROGENASE: 405 u/L
  LIPASE: 9.33 u/L
  PHOSPHORUS: 12.77 mg/dL
  POTASSIUM: 5.85 MEQ/L
  SODIUM: 141.6 MEQ/L
  TOTAL BILIRUBIN: 0.1 mg/dL
  TOTAL PROTEIN: 6.63 G/DL
  URIC ACID: 2.07 mg/dL
[2]
  ABSOLUTE BASOPHIL: 0 CELLS/uL
  ABSOLUTE EOSINOPHIL: 50 CELLS/uL
  ABSOLUTE LYMPHOCYTE: 8382 CELLS/uL
  ABSOLUTE MONOCYTE: 59.67 CELLS/uL
  ABSOLUTE SEGMENTED NEUTROPHIL: 575 CELLS/uL
  BASOPHIL: 0%
  EOSINOPHIL: 0.67%
  ERYTHROCYTE COUNT: 5.2 x10E6/uL
  HEMATOCRIT: 32.73%
  HEMOGLOBIN: 12.73 G/DL
  LEUKOCYTE COUNT: 9.07 x10E3/uL
  LYMPHOCYTE: 92.33%
  MEAN CORPUSCULAR HEMOGLOBIN: 24.53 pg
  MEAN CORPUSCULAR HEMOGLOBIN CONCENTRATION: 38.9 G/DL
  MEAN CORPUSCULAR VOLUME: 63.07 fL
  MONOCYTE: 0.67%
  NEUTROPHIL: 6.33%
  NUCLEATED RED BLOOD CELLS: 0 /100WBC
  PLATELET COUNT: 1257.67 x10E3/uL
  ALANINE AMINOTRANSFERASE: 49.33 u/L
  ALBUMIN: 4.2 G/DL
  ALKALINE PHOSPHATASE: 379.33 u/L
  ASPARTATE AMINOTRANSFERASE: 77.67 u/L
  BLOOD UREA NITROGEN: 16 mg/dL
  CARBON DIOXIDE: 28.67 mmol/L
  CHLORIDE: 104.67 MEQ/L
  CHOLESTEROL: 74.33 mg/dL
  CREATINE PHOSPHOKINASE: 301.33 u/L
  CREATININE: 0.2 mg/dL
  GLUCOSE: 164 mg/dL
  LACTATE DEHYDROGENASE: 99.33 u/L
  LIPASE: 9 u/L
  PHOSPHORUS: 10.9 mg/dL
  POTASSIUM: 5.63 MEQ/L
  SODIUM: 146.33 MEQ/L
  TOTAL BILIRUBIN: 0.17 mg/dL
  TOTAL PROTEIN: 6 G/DL
  URIC ACID: 1.13 mg/dL
[3]
  ABSOLUTE BASOPHIL: 0 CELLS/uL
  ABSOLUTE EOSINOPHIL: 0 CELLS/uL
  ABSOLUTE LYMPHOCYTE: 12825 CELLS/uL
  ABSOLUTE MONOCYTE: 117.67 CELLS/uL
  ABSOLUTE SEGMENTED NEUTROPHIL: 1290.67 CELLS/uL
  BASOPHIL: 0%
  EOSINOPHIL: 0%
  ERYTHROCYTE COUNT: 5.78 x10E6/uL
  HEMATOCRIT: 35.33%
  HEMOGLOBIN: 13.37 G/DL
  LEUKOCYTE COUNT: 14.23 x10E3/uL
  LYMPHOCYTE: 90.33%
  MEAN CORPUSCULAR HEMOGLOBIN: 23.13 pg
  MEAN CORPUSCULAR HEMOGLOBIN CONCENTRATION: 37.87 G/DL
  MEAN CORPUSCULAR VOLUME: 61.23 fL
  MONOCYTE: 1%
  NEUTROPHIL: 8.67%
  NUCLEATED RED BLOOD CELLS: 0.33 /100WBC
  PLATELET COUNT: 1309.67 x10E3/uL
  ALANINE AMINOTRANSFERASE: 52.33 u/L
  ALBUMIN: 4 G/DL
  ALKALINE PHOSPHATASE: 520 u/L
  ASPARTATE AMINOTRANSFERASE: 97.33 u/L
  BLOOD UREA NITROGEN: 13.67 mg/dL
  CARBON DIOXIDE: 23.33 mmol/L
  CHLORIDE: 106.33 MEQ/L
  CHOLESTEROL: 55 mg/dL
  CREATINE PHOSPHOKINASE: 913 u/L
  CREATININE: 0.19 mg/dL
  GLUCOSE: 175.33 mg/dL
  LACTATE DEHYDROGENASE: 124.33 u/L
  LIPASE: 8.67 u/L
  PHOSPHORUS: 11.6 mg/dL
  POTASSIUM: 5.22 MEQ/L
  SODIUM: 144.53 MEQ/L
  TOTAL BILIRUBIN: 0.17 mg/dL
  TOTAL PROTEIN: 5.87 G/DL
  URIC ACID: 1.37 mg/dL

From ChEMBL document CHEMBL3885881, “DrugMatrix”
